Results published in patent US7138361B2, “Herbicidal heterocycles” (E. I. du Pont de Nemours and Company, priority 2000, dated 2006).

Legend:
Experiment in all cases: Test C preemergence
Assay type in all cases: in vivo
Nightshade [1] = conditions: Rate 500 g/ha, visual evaluation after 12 to 14 days
[2] = test system: common ragweed (Ambrosia elatior); conditions: for Plant response rating (0 to 100), Ragweed, Common: Rate 500 g/ha, visual evaluation after 12 to 14 days
Method in brief: (§1)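 Formulation: non-phytotoxic solvent mix incl. surfactant. Pre: applied right after planting. Post: 1–4-leaf seedlings. Read: visual 0–100, day 12–14, greenhouse.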

[3] = test system: Surinam grass (Brachiaria decumbens); conditions: for Plant response rating (0 to 100), Surinam grass: visual evaluation after 12 to 14 days
Method in brief: as §1

[4] = test system: cocklebur (Xanthium strumarium); conditions: for Plant response rating (0 to 100), Cocklebur: visual evaluation after 12 to 14 days
Method in brief: as §1

[5] = test system: velvetleaf (Abutilon theophrasti); conditions: for Plant response rating (0 to 100), Velvetleaf: Rate 500 g/ha, visual evaluation after 12 to 14 days
Method in brief: as §1

[6] = test system: lambsquarters (Chenopodium album); conditions: for Plant response rating (0 to 100), Lambsquarters: Rate 500 g/ha, visual evaluation after 12 to 14 days
Method in brief: as §1

Sunflower = conditions: Rate 125 g/ha; scale 0 to 100, 0 no effect, 100 complete control
corn (Zea mays) = conditions: for Plant response rating (0 to 100), Corn: visual evaluation after 12 to 14 days
Method in brief: as §1

Nightshade [7] = test system: Nightshade
[8] = test system: goosegrass (Eleusine indica); conditions: for Plant response rating (0 to 100), Goosegrass: visual evaluation after 12 to 14 days
Method in brief: as §1

[9] = test system: crabgrass (Digitaria sanguinalis); conditions: for Plant response rating (0 to 100), Crabgrass: visual evaluation after 12 to 14 days
Method in brief: as §1

[10] = test system: yellow nutsedge (Cyperus esculentus); conditions: for Plant response rating (0 to 100), Nutsedge: Rate 500 g/ha, visual evaluation after 12 to 14 days
Method in brief: as §1

[11] = test system: morningglory (Ipomoea hederacea); conditions: for Plant response rating (0 to 100), Morningglory: Rate 500 g/ha, visual evaluation after 12 to 14 days
Method in brief: as §1

[12] = test system: woolly cupgrass (Eriochloa villosa); conditions: for Plant response rating (0 to 100), Cupgrass, Woolly: visual evaluation after 12 to 14 days
Method in brief: as §1

[13] = test system: bermudagrass (Cynodon dactylon); conditions: for Plant response rating (0 to 100 where 0 is no effect and 100 is complete control), Bermudagrass: visual evaluation after 12 to 14 days
Method in brief: as §1

[14] = test system: johnsongrass (Sorghum halepense); conditions: for Plant response rating (0 to 100), Johnsongrass: visual evaluation after 12 to 14 days
Method in brief: as §1

kochia (Kochia scoparia) = conditions: for Plant response rating (0 to 100), Kochia: visual evaluation after 12 to 14 days
Method in brief: as §1

[15] = test system: giant foxtail (Setaria faberii); conditions: for Plant response rating (0 to 100), Foxtail, Giant: visual evaluation after 12 to 14 days
Method in brief: as §1

soybean (Glycine max) = conditions: for Plant response rating (0 to 100), Soybean: Rate 500 g/ha, visual evaluation after 12 to 14 days
Method in brief: as §1

[16] = test system: pigweed (Amaranthus retroflexus); conditions: for Plant response rating (0 to 100), Pigweed: Rate 500 g/ha, visual evaluation after 12 to 14 days
Method in brief: as §1

[17] = Rate 125 g/ha, scale 0 to 100, 0 no effect, 100 complete control
[18] = preemergence, Rate 62 g/ha, scale 0 to 100
[19] = preemergence, Rate 250 g/ha, scale 0 to 100, 0 no effect, 100 complete control
[20] = Rate 250 g/ha, scale 0 to 100, 0 no effect, 100 complete control

CCC(CC)c1ccn(C2CCN(c3cccc(OC(C)C)c3)C2=O)n1 (stereo not shown) [Compound 84]
Plant response rating (0 to 100), Nightshade (Nightshade [1]): 100
Plant response rating, Ragweed, Common [2, 17]: 0
Plant response rating, Ragweed, Common [2, 18]: 0
Plant response rating (0 to 100), Ragweed, Common ([2]; preemergence): 0
Plant response rating, Ragweed, Common [2, 19]: 0
Plant response rating, Surinam grass [3, 17]: 0
Plant response rating, Surinam grass [3, 18]: 0
Plant response rating (0 to 100), Surinam grass ([3]; preemergence, Rate 250 g/ha): 30
Plant response rating (0 to 100), Surinam grass ([3]; preemergence, Rate 500 g/ha): 80
Plant response rating, Cocklebur [4, 17]: 0
Plant response rating, Cocklebur [4, 18]: 0
Plant response rating (0 to 100), Cocklebur ([4]; preemergence, Rate 250 g/ha): 0
Plant response rating (0 to 100), Cocklebur ([4]; preemergence, Rate 500 g/ha): 0
Plant response rating, Velvetleaf [5, 17]: 0
Plant response rating, Velvetleaf [5, 18]: 0
Plant response rating (0 to 100), Velvetleaf ([5]; preemergence): 0
Plant response rating, Velvetleaf [5, 19]: 0
Plant response rating, Lambsquarters [6, 17]: 100
Plant response rating, Lambsquarters [6, 18]: 100
Plant response rating (0 to 100), Lambsquarters ([6]; preemergence): 100
Plant response rating, Lambsquarters [6, 19]: 100
Plant response rating, Sunflower (Sunflower): 10
Plant response rating, Corn (corn (Zea mays); [17]): 0
Plant response rating, Corn (corn (Zea mays); [18]): 0
Plant response rating (0 to 100), Corn (corn (Zea mays); preemergence, Rate 250 g/ha): 0
Plant response rating (0 to 100), Corn (corn (Zea mays); preemergence, Rate 500 g/ha): 0
Plant response rating, Nightshade (Nightshade [7]; Rate 62 g/ha, scale 0 to 100): 30
Plant response rating, Nightshade (Nightshade [7]; [17]): 50
Plant response rating, Nightshade (Nightshade [7]; [20]): 100
Plant response rating, Goosegrass [8, 17]: 80
Plant response rating, Goosegrass [8, 18]: 20
Plant response rating (0 to 100), Goosegrass ([8]; preemergence, Rate 250 g/ha): 90
Plant response rating (0 to 100), Goosegrass ([8]; preemergence, Rate 500 g/ha): 100
Plant response rating, Crabgrass [9, 17]: 100
Plant response rating, Crabgrass [9, 18]: 90
Plant response rating (0 to 100), Crabgrass ([9]; preemergence, Rate 250 g/ha): 100
Plant response rating (0 to 100), Crabgrass ([9]; preemergence, Rate 500 g/ha): 100
Plant response rating, Nutsedge [10, 17]: 0
Plant response rating, Nutsedge [10, 18]: 0
Plant response rating (0 to 100), Nutsedge ([10]; preemergence): 0
Plant response rating, Nutsedge [10, 19]: 0
Plant response rating, Morningglory [11, 17]: 20
Plant response rating, Morningglory [11, 18]: 0
Plant response rating (0 to 100), Morningglory ([11]; preemergence): 20
Plant response rating, Morningglory [11, 19]: 20
Plant response rating, Cupgrass, Woolly [12, 17]: 90
Plant response rating, Cupgrass, Woolly [12, 18]: 60
Plant response rating (0 to 100), Cupgrass, Woolly ([12]; preemergence, Rate 250 g/ha): 90
Plant response rating (0 to 100), Cupgrass, Woolly ([12]; preemergence, Rate 500 g/ha): 100
Plant response rating, Bermudagrass [13, 17]: 100
Plant response rating, Bermudagrass [13, 18]: 100
Plant response rating (0 to 100 where 0 is no effect and 100 is complete control), Bermudagrass ([13]; preemergence, Rate 250 g/ha): 100
Plant response rating (0 to 100 where 0 is no effect and 100 is complete control), Bermudagrass ([13]; preemergence, Rate 500 g/ha): 100
Plant response rating, Johnsongrass [14, 17]: 0
Plant response rating, Johnsongrass [14, 18]: 0
Plant response rating (0 to 100), Johnsongrass ([14]; preemergence, Rate 250 g/ha): 0
Plant response rating (0 to 100), Johnsongrass ([14]; preemergence, Rate 500 g/ha): 0
Plant response rating, Kochia (kochia (Kochia scoparia); [17]): 100
Plant response rating, Kochia (kochia (Kochia scoparia); [18]): 80
Plant response rating (0 to 100), Kochia (kochia (Kochia scoparia); preemergence, Rate 250 g/ha): 100
Plant response rating (0 to 100), Kochia (kochia (Kochia scoparia); preemergence, Rate 500 g/ha): 100
Plant response rating, Foxtail, Giant [15, 17]: 80
Plant response rating, Foxtail, Giant [15, 18]: 10
Plant response rating (0 to 100), Foxtail, Giant ([15]; preemergence, Rate 250 g/ha): 100
Plant response rating (0 to 100), Foxtail, Giant ([15]; preemergence, Rate 500 g/ha): 100
Plant response rating, Soybean (soybean (Glycine max); [17]): 0
Plant response rating, Soybean (soybean (Glycine max); [18]): 0
Plant response rating (0 to 100), Soybean (soybean (Glycine max); preemergence): 0
Plant response rating, Soybean (soybean (Glycine max); [19]): 0
Plant response rating, Pigweed [16, 17]: 0
Plant response rating, Pigweed [16, 18]: 90
Plant response rating (0 to 100), Pigweed ([16]; preemergence): 90
Plant response rating, Pigweed [16, 19]: 100

COc1cc(N2CCC(n3ccc(C(C)C)n3)C2=O)ccc1C (stereo not shown) [Compound 85]
Plant response rating (0 to 100), Nightshade (Nightshade [1]): 100
Plant response rating, Ragweed, Common [2, 17]: 100
Plant response rating, Ragweed, Common [2, 18]: 90
Plant response rating (0 to 100), Ragweed, Common ([2]; preemergence): 100
Plant response rating, Ragweed, Common [2, 19]: 100
Plant response rating, Surinam grass [3, 17]: 30
Plant response rating, Surinam grass [3, 18]: 30
Plant response rating (0 to 100), Surinam grass ([3]; preemergence, Rate 250 g/ha): 100
Plant response rating (0 to 100), Surinam grass ([3]; preemergence, Rate 500 g/ha): 100
Plant response rating, Cocklebur [4, 17]: 60
Plant response rating, Cocklebur [4, 18]: 60
Plant response rating (0 to 100), Cocklebur ([4]; preemergence, Rate 250 g/ha): 60
Plant response rating (0 to 100), Cocklebur ([4]; preemergence, Rate 500 g/ha): 60
Plant response rating, Velvetleaf [5, 17]: 70
Plant response rating, Velvetleaf [5, 18]: 70
Plant response rating (0 to 100), Velvetleaf ([5]; preemergence): 100
Plant response rating, Velvetleaf [5, 19]: 80
Plant response rating, Lambsquarters [6, 17]: 100
Plant response rating, Lambsquarters [6, 18]: 100
Plant response rating (0 to 100), Lambsquarters ([6]; preemergence): 100
Plant response rating, Lambsquarters [6, 19]: 100
Plant response rating, Sunflower (Sunflower): 70
Plant response rating, Corn (corn (Zea mays); [17]): 30
Plant response rating, Corn (corn (Zea mays); [18]): 30
Plant response rating (0 to 100), Corn (corn (Zea mays); preemergence, Rate 250 g/ha): 60
Plant response rating (0 to 100), Corn (corn (Zea mays); preemergence, Rate 500 g/ha): 80
Plant response rating, Nightshade (Nightshade [7]; Rate 62 g/ha, scale 0 to 100): 80
Plant response rating, Nightshade (Nightshade [7]; [17]): 90
Plant response rating, Nightshade (Nightshade [7]; [20]): 100
Plant response rating, Goosegrass [8, 17]: 100
Plant response rating, Goosegrass [8, 18]: 20
Plant response rating (0 to 100), Goosegrass ([8]; preemergence, Rate 250 g/ha): 100
Plant response rating (0 to 100), Goosegrass ([8]; preemergence, Rate 500 g/ha): 100
Plant response rating, Crabgrass [9, 17]: 100
Plant response rating, Crabgrass [9, 18]: 100
Plant response rating (0 to 100), Crabgrass ([9]; preemergence, Rate 250 g/ha): 100
Plant response rating (0 to 100), Crabgrass ([9]; preemergence, Rate 500 g/ha): 100
Plant response rating, Nutsedge [10, 17]: 70
Plant response rating, Nutsedge [10, 18]: 50
Plant response rating (0 to 100), Nutsedge ([10]; preemergence): 90
Plant response rating, Nutsedge [10, 19]: 70
Plant response rating, Morningglory [11, 17]: 90
Plant response rating, Morningglory [11, 18]: 50
Plant response rating (0 to 100), Morningglory ([11]; preemergence): 100
Plant response rating, Morningglory [11, 19]: 90
Plant response rating, Cupgrass, Woolly [12, 17]: 100
Plant response rating, Cupgrass, Woolly [12, 18]: 100
Plant response rating (0 to 100), Cupgrass, Woolly ([12]; preemergence, Rate 250 g/ha): 100
Plant response rating (0 to 100), Cupgrass, Woolly ([12]; preemergence, Rate 500 g/ha): 100
Plant response rating, Bermudagrass [13, 17]: 100
Plant response rating, Bermudagrass [13, 18]: 100
Plant response rating (0 to 100 where 0 is no effect and 100 is complete control), Bermudagrass ([13]; preemergence, Rate 250 g/ha): 100
Plant response rating (0 to 100 where 0 is no effect and 100 is complete control), Bermudagrass ([13]; preemergence, Rate 500 g/ha): 100
Plant response rating, Johnsongrass [14, 17]: 50
Plant response rating (0 to 100), Johnsongrass ([14]; preemergence, Rate 250 g/ha): 80
Plant response rating (0 to 100), Johnsongrass ([14]; preemergence, Rate 500 g/ha): 100
Plant response rating, Kochia (kochia (Kochia scoparia); [17]): 100
Plant response rating, Kochia (kochia (Kochia scoparia); [18]): 100
Plant response rating (0 to 100), Kochia (kochia (Kochia scoparia); preemergence, Rate 250 g/ha): 100
Plant response rating (0 to 100), Kochia (kochia (Kochia scoparia); preemergence, Rate 500 g/ha): 100
Plant response rating, Foxtail, Giant [15, 17]: 100
Plant response rating, Foxtail, Giant [15, 18]: 60
Plant response rating (0 to 100), Foxtail, Giant ([15]; preemergence, Rate 250 g/ha): 100
Plant response rating (0 to 100), Foxtail, Giant ([15]; preemergence, Rate 500 g/ha): 100
Plant response rating, Soybean (soybean (Glycine max); [17]): 40
Plant response rating, Soybean (soybean (Glycine max); [18]): 20
Plant response rating (0 to 100), Soybean (soybean (Glycine max); preemergence): 100
Plant response rating, Soybean (soybean (Glycine max); [19]): 40
Plant response rating, Pigweed [16, 17]: 100
Plant response rating, Pigweed [16, 18]: 100
Plant response rating (0 to 100), Pigweed ([16]; preemergence): 100
Plant response rating, Pigweed [16, 19]: 100
